From US20230414584A1, “ADMINISTRATION OF ANTIBIOTIC COMPOUNDS FOR THE TREATMENT OF STREPTOCOCCAL INFECTIONS FOR THE TREATMENT OF PSORIASIS” (CENTRE FOR DIGESTIVE DISEASES, priority 2017, published 2023) come the findings set out here.

In data set [1] the test system is extensive plaque psoriasis. Briefly: Case report: treatment of psoriasis with Clofazimine, Rifampicin, Tinidazole, Enbrel (Example 4). It is filed as in vivo, human. The procedure:
It was at this time that antibiotics were added to the etanercept (Enbrel™).

In another data set the test system is psoriasis of the scalp. Nature of the data set: Case report: treatment of psoriasis of the scalp in an adult with OCD using Metronidazole (Example 1). Type of data set: in vivo, human. The source says: A patient with Obsessive-Compulsive Personality Disorder (OCD) commenced treatment in April 2016 with two non-absorbable antibiotics (vancomycin and rifaximin), together with the absorbable Metronidazole. The aim was to suppress their gut bacteria to reduce the OCD.

`CN(Cc1cnc2nc(N)nc(N)c2n1)c1ccc(C(=O)N[C@@H](CCC(=O)O)C(=O)O)cc1` [Methotrexate]: the adverse effects result in data set [1] (person, steroid-dependent extensive psoriasis) is on record as “unacceptable adverse effects”. Turning to `Cc1ncc([N+](=O)[O-])n1CCO` [Metronidazole], the “psoriasis of the scalp” value with psoriasis of the scalp (patient, Metronidazole given with non-absorbable vancomycin and rifaximin from April 2016, by November of 2016) was “marked suppression of the psoriasis of the scalp”; in the data set on psoriasis of the scalp (same patient, by February of 2017), “very little psoriasis left on the scalp”. As for etanercept, in data set [1] (in spite of many months of injections, before antibiotics were added), the “response of psoriasis on continued treatment” value is “the response stalled”. Besides, the response of psoriasis result in data set [1] (person, before antibiotics were added) is recorded as “reduction of the surface area of their body covered by psoriasis plaque”.
